8 molecules from patent US12152031B2, “Biodefense agents” (priority 2018, dated 2024) can be followed below.

≈ marks a conversion by molar mass, not a printed value.

Common to all, as to assay type: cell-based
In assay [1] the test system is E. coli DH10B mcr-1 transformant. The assay can be described thus: microbe, parasite or virus in culture. Particulars: Escherichia coli.
For a further assay, the system named is E. coli DH10B. The assay can be described thus: microbe, parasite or virus in culture. Particulars: Escherichia coli.
The next assay deals with Enterobacteriaceae.
Assay [2] has as its system Burkholderia pseudomallei. The assay is described as follows: microbe, parasite or virus in culture. Particulars: Burkholderia pseudomallei; for MIC: read-out: MIC range.
Another assay has as its system Francisella tularensis. The assay can be described thus: microbe, parasite or virus in culture. Particulars: for MIC: read-out: MIC range.
In another assay the test system is Bacillus anthracis. The assay can be described thus: microbe, parasite or virus in culture. Particulars: for MIC: read-out: MIC range.
In another assay the test system is Yersinia pestis. The assay can be described thus: microbe, parasite or virus in culture. Particulars: for MIC: read-out: MIC range.
For a further assay, the system named is Burkholderia mallei. The assay can be described thus: microbe, parasite or virus in culture. Particulars: for MIC: read-out: MIC range.

For `CSc1cc(-n2cc3cc(-c4cc(CCC[C@@H](N)C5CC5)cc(Cl)c4F)[nH]c3nc2=O)ccc1[C@@H]1CCC[C@@H](CCNC(C)=N)N1` [RX-04B, N-(2-((2S,6S)-6-(4-(6-(5-((R)-4-amino-4-cyclopropylbutyl)-3-chloro-2-fluorophenyl)-2-oxo-2,7-dihydro-3H-pyrrolo[2,3-d]pyrimidin-3-yl)-2-(methylthio)phenyl)piperidin-2-yl)ethyl)acetimidamide], the MIC (in assay [1]; against E. coli DH10B) was 0.5 µg/mL (≈ 0.753 µM) in each case. In the assay with Enterobacteriaceae, the “peak of unimodal MIC distribution” value was 1 mg/L.

In the case of `CCCN1[C@H](CCNC(C)=N)CCC[C@H]1c1ccc(-n2cc3cc(-c4cc(CCC[C@H](C)N)cc(Cl)c4F)[nH]c3nc2=O)cc1` [RX-D5], the MIC50 in assay [2] came out at 4 µg/mL (≈ 6.31 µM); against Francisella tularensis it was 0.06 µg/mL (≈ 0.0946 µM); in the assay on Bacillus anthracis, 0.06 µg/mL (≈ 0.0946 µM); in the assay on Yersinia pestis, 0.12 µg/mL (≈ 0.189 µM); against Burkholderia mallei, 0.06 µg/mL (≈ 0.0946 µM). For the same molecule, the MIC90 in assay [2] was 8 µg/mL (≈ 12.6 µM); against Francisella tularensis, 0.12 µg/mL (≈ 0.189 µM); with Bacillus anthracis, 0.06 µg/mL (≈ 0.0946 µM); in the assay on Yersinia pestis it was 0.25 µg/mL (≈ 0.394 µM); with Burkholderia mallei it was 0.12 µg/mL (≈ 0.189 µM). Besides, the MIC lay within 0.004 to 1 µg/mL (≈ 0.00631 to 1.58 µM) with Francisella tularensis, 0.015 to 0.12 µg/mL (≈ 0.0237 to 0.189 µM) in the assay with Bacillus anthracis, 0.03 to 0.5 µg/mL (≈ 0.0473 to 0.788 µM) in the assay with Yersinia pestis and 0.03 to 0.12 µg/mL (≈ 0.0473 to 0.189 µM) in the assay with Burkholderia mallei.

As for `C[C@H](N)CCCc1cc(Cl)c(F)c(-c2cc3cn(-c4ccc([C@@H]5CCC[C@@H](CCNC(=N)CN)N5)cc4)c(=O)nc3[nH]2)c1` [RX-D6], the MIC50 in assay [2] was > 8 µg/mL; in the assay on Francisella tularensis it was 0.06 µg/mL (≈ 0.0988 µM); in the assay on Bacillus anthracis, 0.12 µg/mL (≈ 0.198 µM); against Yersinia pestis, 0.5 µg/mL (≈ 0.823 µM); against Burkholderia mallei, 0.12 µg/mL (≈ 0.198 µM). Also, the MIC90 in assay [2] was > 8 µg/mL; in the assay on Francisella tularensis, 0.25 µg/mL (≈ 0.412 µM); against Bacillus anthracis, 0.25 µg/mL (≈ 0.412 µM); with Yersinia pestis, 1 µg/mL (≈ 1.65 µM); against Burkholderia mallei, 0.25 µg/mL (≈ 0.412 µM). The MIC in the assay on Francisella tularensis lay in the range of 0.03 to 0.5 µg/mL (≈ 0.0494 to 0.823 µM); with Bacillus anthracis, 0.06 to 0.25 µg/mL (≈ 0.0988 to 0.412 µM); in the assay with Yersinia pestis, 0.015 to 1 µg/mL (≈ 0.0247 to 1.65 µM); in the assay on Burkholderia mallei it was 0.12 to 0.25 µg/mL (≈ 0.198 to 0.412 µM).

As to `C=C[C@H](N)CCCc1cc(Cl)c(F)c(-c2cc3cn(-c4ccc([C@@H]5CCC[C@@H](CCNC(C)=N)N5)c(SC)c4)c(=O)nc3[nH]2)c1` [RX-D7], the MIC50 in assay [2] was 4 µg/mL (≈ 6.15 µM); against Francisella tularensis it was 0.12 µg/mL (≈ 0.185 µM); with Bacillus anthracis, ≤ 0.008 µg/mL; against Yersinia pestis, 0.25 µg/mL (≈ 0.384 µM); in the assay with Burkholderia mallei it was 0.25 µg/mL (≈ 0.384 µM). The MIC90 in assay [2] was 8 µg/mL (≈ 12.3 µM); with Francisella tularensis, 0.25 µg/mL (≈ 0.384 µM); in the assay on Bacillus anthracis, 0.03 µg/mL (≈ 0.0461 µM); in the assay with Yersinia pestis, 0.5 µg/mL (≈ 0.769 µM); in the assay on Burkholderia mallei, 0.25 µg/mL (≈ 0.384 µM). The MIC with Francisella tularensis fell in the range of 0.06 to 0.5 µg/mL (≈ 0.0923 to 0.769 µM); in the assay on Bacillus anthracis it was 0.008 to 0.06 µg/mL (≈ 0.0123 to 0.0923 µM); with Yersinia pestis, 0.03 to 1 µg/mL (≈ 0.0461 to 1.54 µM); in the assay with Burkholderia mallei, 0.06 to 0.5 µg/mL (≈ 0.0923 to 0.769 µM).

Regarding `C[C@H](N)CCCc1cc(Cl)c(F)c(-c2cc3cn(-c4ccc([C@@H]5CCC[C@@H](CCSC(=N)N)N5)c(F)c4)c(=O)nc3[nH]2)c1` [RX-D11], the MIC50 in assay [2] came out at 1 µg/mL (≈ 1.59 µM); in the assay on Francisella tularensis, 0.06 µg/mL (≈ 0.0955 µM); in the assay on Bacillus anthracis, 0.12 µg/mL (≈ 0.191 µM); in the assay with Yersinia pestis, 0.12 µg/mL (≈ 0.191 µM); in the assay on Burkholderia mallei, 0.06 µg/mL (≈ 0.0955 µM). The MIC90 in assay [2] was 2 µg/mL (≈ 3.18 µM); with Francisella tularensis, 0.12 µg/mL (≈ 0.191 µM); against Bacillus anthracis it was 0.25 µg/mL (≈ 0.398 µM); with Yersinia pestis it was 0.25 µg/mL (≈ 0.398 µM); in the assay on Burkholderia mallei, 0.12 µg/mL (≈ 0.191 µM). The MIC in assay [2] lay in the range of 0.25 to 8 µg/mL (≈ 0.398 to 12.7 µM); in the assay on Francisella tularensis, 0.008 to 1 µg/mL (≈ 0.0127 to 1.59 µM); in the assay on Bacillus anthracis, 0.008 to 0.5 µg/mL (≈ 0.0127 to 0.796 µM); with Yersinia pestis, 0.004 to 0.25 µg/mL (≈ 0.00637 to 0.398 µM); in the assay on Burkholderia mallei, 0.03 to 0.25 µg/mL (≈ 0.0478 to 0.398 µM).

`CC[C@H]1OC(=O)[C@H](C)[C@@H](O[C@H]2C[C@@](C)(OC)[C@@H](O)[C@H](C)O2)[C@H](C)[C@@H](O[C@@H]2O[C@H](C)C[C@H](N(C)C)[C@H]2O)[C@](C)(O)C[C@@H](C)CN(C)[C@H](C)[C@@H](O)[C@]1(C)O` [Azithromycin, azithromycin, reference compound]: in the assay on Burkholderia mallei, the MIC50 was determined as 0.5 µg/mL (≈ 0.668 µM), the MIC90 was determined as 1 µg/mL (≈ 1.34 µM) and the MIC is 0.06 to 1 µg/mL (≈ 0.0801 to 1.34 µM).

For `CC(=N)NCC[C@@H]1CSC[C@@H](c2ccc(-n3cc4cc(-c5cc(CCC[C@H](C)N)cc(Cl)c5F)[nH]c4nc3=O)cc2)N1` [RX-D9], the MIC50 in assay [2] is 2 µg/mL (≈ 3.28 µM); against Francisella tularensis, 0.12 µg/mL (≈ 0.197 µM); against Bacillus anthracis it was 0.06 µg/mL (≈ 0.0983 µM); with Yersinia pestis it was 0.12 µg/mL (≈ 0.197 µM); in the assay on Burkholderia mallei, 0.12 µg/mL (≈ 0.197 µM). Also, the MIC90 in assay [2] is 4 µg/mL (≈ 6.56 µM); with Francisella tularensis, 0.25 µg/mL (≈ 0.41 µM); with Bacillus anthracis, 0.12 µg/mL (≈ 0.197 µM); against Yersinia pestis it was 0.25 µg/mL (≈ 0.41 µM); against Burkholderia mallei it was 0.25 µg/mL (≈ 0.41 µM). Also, the MIC in assay [2] was in the range of 0.5 to 4 µg/mL (≈ 0.819 to 6.56 µM); with Francisella tularensis, 0.03 to 2 µg/mL (≈ 0.0492 to 3.28 µM); with Bacillus anthracis, 0.008 to 0.12 µg/mL (≈ 0.0131 to 0.197 µM); in the assay on Yersinia pestis, 0.06 to 0.5 µg/mL (≈ 0.0983 to 0.819 µM); with Burkholderia mallei it was 0.03 to 0.5 µg/mL (≈ 0.0492 to 0.819 µM).

In the case of `C[C@H](N)CCCc1cc(Cl)c(F)c(-c2cc3cn(-c4ccc([C@H]5CC[C@H](CCNC(=N)N)N5)cc4)c(=O)nc3[nH]2)c1` [RX-D13], the MIC50 in assay [2] worked out at 1 µg/mL (≈ 1.73 µM); in the assay with Francisella tularensis, 0.015 µg/mL (≈ 0.0259 µM); in the assay with Bacillus anthracis it was 0.06 µg/mL (≈ 0.104 µM); against Yersinia pestis, 0.06 µg/mL (≈ 0.104 µM); with Burkholderia mallei it was 0.06 µg/mL (≈ 0.104 µM). The MIC90 in assay [2] came out at 4 µg/mL (≈ 6.91 µM); against Francisella tularensis it was 0.06 µg/mL (≈ 0.104 µM); with Bacillus anthracis, 0.06 µg/mL (≈ 0.104 µM); in the assay with Yersinia pestis, 0.25 µg/mL (≈ 0.432 µM); in the assay with Burkholderia mallei, 0.12 µg/mL (≈ 0.207 µM). Besides, the MIC in assay [2] fell in the range of 0.25 to 8 µg/mL (≈ 0.432 to 13.8 µM); with Francisella tularensis it was 0.004 to 0.12 µg/mL (≈ 0.00691 to 0.207 µM); in the assay with Bacillus anthracis it was 0.008 to 0.12 µg/mL (≈ 0.0138 to 0.207 µM); in the assay with Yersinia pestis, 0.03 to 0.25 µg/mL (≈ 0.0518 to 0.432 µM); in the assay on Burkholderia mallei it was 0.008 to 0.12 µg/mL (≈ 0.0138 to 0.207 µM).
